Assays:
Format in all cases: cell-based, human
A2780 = assay: MTT cell viability assay, A2780; conditions: for IC50: 72 hours treatment, MTT; for Activity compared with cisplatin or auranofin in A2780 cells: comparison of IC50, Table 8
Excerpt: (§1) Human epithelial ovarian cancer A2780 cell line and its cisplatin-resistant clone A2780cis were obtained from Sigma-Aldrich (Milano, Italy). SKOV3 (HTB-77) cells were from the American Type Culture Collection (ATCC). The two cell lines were selected to reflect the two different stages of OvCa and different sensitivity to cisplatin. A2780 cell lines were derived from the ovarian tumor tissue of an untreated patient, while SKOV3 was from the ascitic fluids (after metastasis). Cells were authenticated in the laboratory using PowerPlex 16 HS system (Promega) and GeneMapper ID version 3.2.1 to identify DNA short tandem repeats. Cell lines were cultured in RPMI-1640 medium containing 10% fetal bovine serum (FBS) (Gibco, Thermo Fisher Scientific, U.S.A), 1% (v/v) of penicillin (10,000 units/mL)-streptomycin (10 mg/mL), and 1% (v/v) L-glutamine (200 mM) (all from Sigma- Aldrich) at 37° C. in a 5% CO2 fully humidified atmosphere. A2780cis cells were continuously exposed to 1 μM cisplatin to maintain cisplatin resistance. Adipose-derived stem cells (ADSCs) were purchased from Lonza and maintained in mesenchymal-stem-cell growth medium Bulletkit MSCGM (Lonza, Verviers, Belgium).
(§2) 4.0×10^3/mL A2780, A2780cis, and SKOV3 cells were seeded in 96-well microplates in 100 μL of culture medium. Cells were allowed to adhere for 24 hours and then were treated in triplicate with increasing concentrations of gold compounds (0-1 μM). Cisplatin was included as a reference drug. Cell viability was evaluated using 3-(4,5-dimethylthiazol-2-yl)-2,5-diphenyltetrazolium bromide (MTT) assay (Sigma-Aldrich) after 72 hours of treatment. Half maximal inhibitory concentrations (IC50) were calculated using the CalcuSyn software version 2 (Biosoft, Ferguson, MO, USA). Fold resistance was calculated as the ratio of the IC50 of the A2780cis to that of the parental cell line A2780.

A2780cis [1] = assay: MTT cell viability assay, cisplatin-resistant A2780cis; conditions: for IC50: 72 hours treatment, MTT; for Fold resistance (A2780cis/A2780): IC50 A2780cis/IC50 A2780
Excerpt: Human epithelial ovarian cancer A2780 cell line and its cisplatin-resistant clone A2780cis were obtained from Sigma-Aldrich (Milano, Italy). SKOV3 (HTB-77) cells were from the American Type Culture Collection (ATCC). The two cell lines were selected to reflect the two different stages of OvCa and different sensitivity to cisplatin. A2780 cell lines were derived from the ovarian tumor tissue of an untreated patient, while SKOV3 was from the ascitic fluids (after metastasis). […] Cell lines were cultured in RPMI-1640 medium containing 10% fetal bovine serum (FBS) (Gibco, Thermo Fisher Scientific, U.S.A), 1% (v/v) of penicillin (10,000 units/mL)-streptomycin (10 mg/mL), and 1% (v/v) L-glutamine (200 mM) (all from Sigma- Aldrich) at 37° C. in a 5% CO2 fully humidified atmosphere. […] Cisplatin was included as a reference drug. […] Fold resistance was calculated as the ratio of the IC50 of the A2780cis to that of the parental cell line A2780.

SKOV3 cells = assay: MTT cell viability assay, SKOV3; conditions: 72 hours treatment
Excerpt: as §1, §2

A2780 and A2780cis cells [2] = assay: Apoptosis by flow cytometry (annexin-V/7AAD, caspase-3,7, BAX, Bcl-2); conditions: 48 hours; complex 6 and auranofin at IC50 and IC75, cisplatin 0.15 μM and 0.50 μM
Protocol: (§3) Results were detected by flow cytometry on a BD FACSCanto II flow cytometer. Data were analyzed using BD FACSDiva version 8.0.1 software (BD Biosciences) unless otherwise indicated. To evaluate apoptosis, tumor cells were treated for 48 hours and then stained for 15 minutes with FITC annexin-V (Thermo Fisher Scientific) and 7AAD (BD Pharmingen). […] For B-cell lymphoma/leukemia-2 (Bcl-2) and Bcl-2 associated x protein (Bax) evaluation, cells were fixed and permeabilized using FIX & PERM cell fixation and cell permeabilization kit (Life Technologies). […] The distribution of cells in different cell cycle phases was quantified using ModFit LT 4.0 software (Verity Software House, Topsham, ME, USA).

A2780 and A2780cis cells [3] = assay: mitROS generation (MitoSOX red), flow cytometry
Protocol: as §3

A2780 and A2780cis cells [4] = assay: DNA double-strand breaks, γ-H2AX western blot
Protocol: Whole-cell lysates were prepared using cold RIPA buffer [150 mM NaCl, 50 mM Tris-HCl (pH 8), 0.1% SDS, 1% Igepal, and 0.5% desoxycholate sodium] containing a protease inhibitor cocktail (Roche Diagnostics S.p.a., Milan, Italy), phosphatase inhibitors 1 mM Na3VO4 and 1 mM NaF (Sigma-Aldrich). Protein concentrations were determined using the BioRad protein assay (Bio-Rad Laboratories, Inc., CA, USA). Equal amounts of proteins were mixed with Laemmli buffer, separated in 4-20% SDS-PAGE (Criterion Precast Gel, BioRad), and blotted onto a nitrocellulose membrane (Amersham, GE Healthcare). Membrane strips were blocked with EveryBilot blocking buffer (Bio-Rad) and incubated at 4° C. overnight with primary antibodies probed with the appropriate antibodies (Table 2) and developed using Immobilon Western chemioluminescent HRP substrate. Images were acquired using a ChemiDoc XRS system (Bio-Rad).

A2780 cells [5] = assay: Cell cycle analysis (PI, flow cytometry), A2780; conditions: for Effect on cell cycle phases: A2780, 24 hours, auranofin 0.5 μM (IC50), cisplatin 0.50 μM
Protocol: as §3

A2780cis [6] = assay: Cell cycle analysis (PI, flow cytometry), A2780cis; conditions: 24 hours
Protocol: as §3

SKOV3-MCTSs = assay: SKOV3-MCTS spheroid volume
Protocol: To generate single spheroids with defined size, 1.0×10^3/mL SKOV3 cells were seeded 4 days under nonadherent conditions in U-bottom 96-well plates coated twice with 20 mg/mL of poly(2-hydroxyethyl methacrylate) (poly-HEMA; Sigma) in 95% ethanol. Spheroid size was measured at days 0, 3, and 7 after drug treatment initiation using an inverted microscope (Eclipse TS/100, Nikon, Tokyo, Japan) with photomicrographic systems DS camera control unit DS-L2. Spheroid volumes were calculated using the formula (width^2×length×3.14)/6.

A2780 cells [7] = assay: ROS generation (MitoSOX red), flow cytometry, A2780; conditions: cisplatin 0.50 μM; from 6.4%
Protocol: 2.0×10^5/mL A2780 and A2780cis cells were seeded in 6-well plates in complete medium and treated with complex 6 (0.15 μM and 0.5 μM). Results were detected by flow cytometry on a BD FACSCanto II flow cytometer. Data were analyzed using BD FACSDiva version 8.0.1 software (BD Biosciences) unless otherwise indicated. To evaluate apoptosis, tumor cells were treated for 48 hours and then stained for 15 minutes with FITC annexin-V (Thermo Fisher Scientific) and 7AAD (BD Pharmingen). […] For B-cell lymphoma/leukemia-2 (Bcl-2) and Bcl-2 associated x protein (Bax) evaluation, cells were fixed and permeabilized using FIX & PERM cell fixation and cell permeabilization kit (Life Technologies). For ROS generation, cells were stained with 5 μM MitoSOX red mitochondrial superoxide indicator (ThermoFisher Scientific) in a working solution for 30 minutes at 37° C. Cell cycle analysis was performed after 24 hours treatment with complex 6. Cells were harvested, fixed in cold 70% ethanol for 15 minutes, and stained with propidium iodide (PI) solution ([…] PI, 0.1% NP-40, 100 µg/mL PureLink RNase A, 0.1% sodium citrate) for 1 hour. The distribution of cells in different cell cycle phases was quantified using ModFit LT 4.0 software (Verity Software House, Topsham, ME, USA).

Row | Compound | IC50 (A2780) | Activity compared with cisplatin or auranofin in A2780 cells (A2780) | IC50 (A2780cis [1]) | Fold resistance (A2780cis/A2780) (A2780cis [1]) | further results
1 | CC(C)c1cccc(C(C)C)c1-n1ccn(-c2c(C(C)C)cccc2C(C)C)[c]1=[Au+][PH](c1ccccc1)(c1ccccc1)C(c1ccccc1)C(N)c1ccccc1.F[P-](F)(F)(F)(F)F (stereo not shown) [Complex 3, [Au(IPr)(C26H24NP)] PF6] | 780 ± 60 nM | more active than cisplatin | 1140 ± 100 nM | 1.46 | –
2 | CC(C)c1cccc(C(C)C)c1-n1ccn(-c2c(C(C)C)cccc2C(C)C)[c]1=[Au+][PH](CCC#N)(CCC#N)c1ccccc1.F[P-](F)(F)(F)(F)F [Complex 1, [Au(IPr)(C12H13N2P)] PF6] | 2000 ± 190 nM | – | 3550 ± 350 nM | 1.78 | –
3 | CC(C)c1cccc(C(C)C)c1-n1ccn(-c2c(C(C)C)cccc2C(C)C)[c]1=[Au+][PH](CC(N)C(C)(C)C)(c1ccccc1)c1ccccc1.F[P-](F)(F)(F)(F)F (stereo not shown) [Complex 5, [Au(IPr)(C18H24NP)] PF6] | 750 ± 70 nM | more active than cisplatin | 920 ± 80 nM | 1.23 | –
4 | CC(C)c1cccc(C(C)C)c1-n1ccn(-c2c(C(C)C)cccc2C(C)C)[c]1=[Au+][PH](CCCN)(c1ccccc1)c1ccccc1.F[P-](F)(F)(F)(F)F [Complex 7, [Au(IPr)(C15H18NP)] PF6] | 1420 ± 120 nM | – | 1800 ± 150 nM | 1.27 | –
5 | CC(C)c1cccc(C(C)C)c1-n1ccn(-c2c(C(C)C)cccc2C(C)C)[c]1=[Au+][PH](c1ccccc1)(c1ccccc1)[C@@H]1CCCC[C@H]1N.F[P-](F)(F)(F)(F)F [Complex 2, [Au(IPr)(C18H22NP)] PF6] | 500 ± 40 nM | more active than cisplatin | 800 ± 40 nM | 1.6 | –
6 | CC[PH](CC)(CC)[Au][S][C@@H]1O[C@H](COC(C)=O)[C@@H](OC(C)=O)[C@H](OC(C)=O)[C@H]1OC(C)=O [Auranofin, (2,3,4,6-tetra-O-acetyl-L-thio-β-D-glycopyranosato-S-)-(triethylphosphane)gold(I), reference compound] | 510 ± 70 nM | – | 1910 ± 220 nM | 3.7 | IC50 (A2780; listed as auranofin): 500 nM; IC50 (A2780cis [1]; listed as auranofin): 1900 nM; IC50 (SKOV3 cells): 2300 nM; Apoptosis (annexin-V / 7AAD positive cells) (A2780 and A2780cis cells [2]): less active in inducing apoptosis in cisplatin-resistant A2780cis than in A2780 cells; mitROS generation (A2780 and A2780cis cells [3]): induced ROS generation; DNA double-strand breaks (γH2AX) (A2780 and A2780cis cells [4]): induced; sub-G0/G1 phase (DNA fragmentation) (A2780 cells [5]; A2780, 0.8 μM (IC75), 24 hours): 11%; Effect on cell cycle phases (A2780 cells [5]): decreased the G1 phase; sub-G0/G1 phase (DNA fragmentation) (A2780cis [6]; 2.5 μM (IC75)): 1.7%; Effect on cell cycle phases (A2780cis [6]): slightly decreased the G1 phase and increased the S phase; Effect on SKOV3-MCTSs at 1 μM (SKOV3-MCTSs; 1 μM): did not reduce SKOV3-MCTS volume; Concentration at which SKOV3-MCTS growth inhibition was seen (SKOV3-MCTSs; 72 hours): higher than 5 μM
7 | N.N.[Cl][Pt][Cl] [Cisplatin, reference compound] | 1500 nM | – | 10400 nM | 6.93 | IC50 (SKOV3 cells): 5400 nM; Apoptosis (annexin-V / 7AAD positive cells) (A2780 and A2780cis cells [2]): did not induce apoptosis; ROS generation (positive cells) (A2780 cells [7]): 17.4%; DNA double-strand breaks (γH2AX) (A2780 and A2780cis cells [4]): did not induce; Effect on cell cycle phases (A2780 cells [5]): slight increase of the G2/M phase; Decrease of SKOV3-MCTS growth with respect to control (SKOV3-MCTSs; 1 μM, 7 days): 16%
8 | CC(C)c1cccc(C(C)C)c1-n1ccn(-c2c(C(C)C)cccc2C(C)C)[c]1=[Au+][PH](CC(N)c1ccccc1)(c1ccccc1)c1ccccc1.F[P-](F)(F)(F)(F)F (stereo not shown) [Complex 4, [Au(IPr)(C20H20NP)] PF6] | 820 ± 50 nM | more active than cisplatin | 1170 ± 150 nM | 1.43 | –

Source: patent US20250057959A1, “PHOSPHANE GOLD(I)-N-HETEROCYCLIC CARBENE COMPLEXES FOR TREATING CANCER” (KING FAHD UNIVERSITY OF PETROLEUM AND MINERALS, priority 2023, published 2025)
